Reference: patent US20250382274A1, “COMPOSITIONS AND METHODS FOR THE TREATMENT OF PARKINSON'S AND GAUCHER DISEASE” (CHILDREN'S HOSPITAL MEDICAL CENTER, priority 2024, published 2025)

Legend:
[1] = molecular target: T1, GCase (purified enzyme, Velaglucerase alfa, VPRIV) (Homo sapiens, UniProt P04062); assay: GCase AC50 enzyme activity assay; type: biochemical; settings: pH 5.6, 4-MuGlu substrate, compounds 0-40 μM
T1 construct: purchased Shire Human Genetic Therapies, Cambridge, MA
T1 sequence (P04062 40-536): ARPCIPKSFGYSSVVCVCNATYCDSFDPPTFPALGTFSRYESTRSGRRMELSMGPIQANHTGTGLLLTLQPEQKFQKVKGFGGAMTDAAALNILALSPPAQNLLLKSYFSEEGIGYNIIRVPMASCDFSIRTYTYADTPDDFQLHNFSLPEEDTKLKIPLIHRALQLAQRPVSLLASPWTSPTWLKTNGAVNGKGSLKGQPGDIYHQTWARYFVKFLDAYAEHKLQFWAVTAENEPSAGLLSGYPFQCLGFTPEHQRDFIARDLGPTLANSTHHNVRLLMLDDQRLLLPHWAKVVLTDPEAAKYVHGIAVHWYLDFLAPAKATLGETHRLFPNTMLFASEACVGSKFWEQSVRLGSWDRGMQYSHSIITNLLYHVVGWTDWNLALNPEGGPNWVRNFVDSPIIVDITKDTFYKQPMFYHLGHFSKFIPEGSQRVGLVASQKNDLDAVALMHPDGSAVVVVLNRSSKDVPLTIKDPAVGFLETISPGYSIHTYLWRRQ
Protocol: An in vitro enzyme assay was performed through a dose response curve of Compounds (0-40 μM) with purified enzyme (Velaglucerase alfa, VPRIV®, Shire Human Genetic Therapies, Cambridge, MA) in citric phosphate [0.025 mM] buffer (pH 5.6) where 4-MuGlu [4 mM] was the substrate. Compounds were pre-incubated with the enzyme for 40 minutes at room temperature prior to substrate addition, and then incubated at 37° C. for 1 hour. AC50 represents the concentration of a Compound that produces 50% of its maximal response in the in vitro GCase activity assay.
(§1) GCase activities were determined fluorometrically with 4-MuGlu. The relative fluorescence unit (RFU) of 4-MuGlu standard curve is generated with the plate reader (M5, Molecular Devise) as 1 n mole=56500 RFU. The human mutant Gaucher fibroblasts were purchased from Coriell Institute (Camden, NJ): N370/ΔGG (Cat #: GM00852) and L444P/L444P (cat #: GM00877)

[2] = molecular target: T2, GCase in healthy human fibroblasts (Homo sapiens, UniProt P04062); assay: EC50 cell-based assay for GCase, healthy human fibroblasts (GCase cell); settings: 5 days compound treatment (0-20 μM)
T2 construct: Healthy human fibroblasts (GCase cell); endogenous in cells; host or cells: healthy human fibroblasts
T2 sequence (P04062 40-536): T1 sequence (P04062 40-536)
Protocol: In cell assays, GCase activity measurements were carried out on harvested cell pellets on the 5th day of Compound treatment. Healthy human fibroblasts (GCase cell), mutant N370/ΔGG (GCase N370S) or L444P/L444P (GCase L444P) were incubated with the Compound (0-20 μM) for 5 days with 15% fetal bovine serum (FBS) in Dulbecco's Modified Eagle Medium (DMEM) in 100 mm culture dishes. Fresh Medium with Compound were replaced every other day. On the 5th day of Compound treatment, harvested cell pellets were lysed with 1% Na-taurocholate (Tc) and 1% Triton X-100 (Tx), and mixed with the reaction buffer which contained 0.025 mM Citric phosphate buffer (pH 5.6), 0.25% Tc/Tx and 4 mM 4-MuGlu, then incubated at 37° C. for 1 hour. EC50 represents the concentration of a Compound that produces 50% of its maximal response in the cell-based GCase activity assay.
as §1

CN(CC1CCCO1)C(=O)c1ccccc1OCC(=O)Nc1ccc(Br)cc1 (stereo not drawn) [Compound 1, 2-((4-bromophenylcarbamoyl)methoxy)-N-((tetrahydrofuran-2-yl)methyl)-N-methylbenzamide]
AC50 [1]: < 10 µM
EC50 [2]: < 10 µM

O=C(Nc1ccc(Br)cc1)c1cc2cccc(C(=O)NCC3CCCO3)c2o1 (stereo not drawn) [Compound 3, N2-(4-bromophenyl)-N7-((tetrahydrofuran-2-yl)methyl)benzofuran-2,7-dicarboxamide]
AC50 [1]: < 10 µM
EC50 [2]: < 10 µM

COc1ccc(NC(=O)c2cc3cccc(C(=O)NCC4CCCO4)c3o2)cc1 (stereo not drawn) [Compound 5, N7-((tetrahydrofuran-2-yl)methyl)-N2-(4-methoxyphenyl)benzofuran-2,7-dicarboxamide]
AC50 [1]: < 10 µM
EC50 [2]: < 10 µM

COc1c(C(=O)Nc2ccc(Br)cc2)oc2c(C(=O)NCC3CCCO3)cccc12 (stereo not drawn) [Compound 6, N2-(4-bromophenyl)-N7-((tetrahydrofuran-2-yl)methyl)-3-methoxybenzofuran-2,7-dicarboxamide]
AC50 [1]: < 10 µM
EC50 [2]: < 10 µM

COc1ccc(NC(=O)C(C)(C)Oc2ccccc2C(=O)N2CCOCC2)cc1 [Compound 7]
AC50 [1]: < 10 µM
EC50 [2]: < 10 µM

CN(C)Cc1ccc(NC(=O)c2nc3cccc(C(=O)NCC4CCCO4)c3o2)cc1 (stereo not drawn) [Compound 9, N2-(4-((dimethylamino)methyl)phenyl)-N7-((tetrahydrofuran-2-yl)methyl)benzo[d]oxazole-2,7-dicarboxamide]
AC50 [1]: < 10 µM
EC50 [2]: < 10 µM

COc1ccc(NC(=O)Cc2nnc(NCC3CCCO3)c3ccccc23)cc1 (stereo not drawn) [Compound 11, 2-(1-((tetrahydrofuran-2-yl)methylamino)phthalazin-4-yl)-N-(4-methoxyphenyl)acetamide]
AC50 [1]: < 10 µM
EC50 [2]: < 10 µM

COc1ccc2[nH]c(COc3ccccc3C(=O)NCC3CCCO3)nc2c1 (stereo not drawn) [Compound 12, 2-((5-methoxy-1H-benzo[d]imidazol-2-yl)methoxy)-N-((tetrahydrofuran-2-yl)methyl)benzamide]
AC50 [1]: < 10 µM
EC50 [2]: < 10 µM

COc1ccc(NC(=O)c2nc3cc(F)cc(C(=O)NCC4CCO4)c3o2)cc1 (stereo not drawn) [Compound 13, 5-fluoro-N2-(4-methoxyphenyl)-N7-(oxetan-2-ylmethyl)-1,3-benzoxazole-2,7-dicarboxamide]
AC50 [1]: < 10 µM
EC50 [2]: < 10 µM

COc1ccc(NC(=O)c2nc3cc(F)cc(C(=O)NCC4CCO4)c3o2)cc1F (stereo not drawn) [Compound 14, 5-fluoro-N2-(3-fluoro-4-methoxy-phenyl)-N7-(oxetan-2-ylmethyl)-1,3-benzoxazole-2,7-dicarboxamide]
AC50 [1]: < 10 µM

COc1ccc(NC(=O)c2nc3c(F)ccc(C(=O)NCC4CCO4)c3o2)cc1 (stereo not drawn) [Compound 15, 4-fluoro-N2-(4-methoxyphenyl)-N7-(oxetan-2-ylmethyl)-1,3-benzoxazole-2,7-dicarboxamide]
AC50 [1]: < 10 µM

O=C(Nc1ccc(CN2CCOCC2)cc1)c1nc2cccc(C(=O)NCC3CCO3)c2o1 (stereo not drawn) [Compound 16, N2-[4-(morpholinomethyl)phenyl]-N7-(oxetan-2-ylmethyl)-1,3-benzoxazole-2,7-dicarboxamide]
AC50 [1]: < 10 µM

CC(C)(Oc1ccccc1C(=O)NCC1CCO1)C(=O)NC1CCN(CC(F)F)CC1 (stereo not drawn) [Compound 17, 2-[2-[[1-(2,2-difluoroethyl)-4-piperidyl]amino]-1,1-dimethyl-2-oxo-ethoxy]-N-(oxetan-2-ylmethyl)benzamide]
AC50 [1]: < 10 µM
EC50 [2]: < 10 µM

CC(C)(Oc1ccccc1C(=O)NCC1CCO1)C(=O)NC1CCN(C2COC2)CC1 (stereo not drawn) [Compound 18, 2-[1,1-dimethyl-2-[[1-(oxetan-3-yl)-4-piperidyl]amino]-2-oxo-ethoxy]-N-(oxetan-2-ylmethyl)benzamide]
AC50 [1]: < 10 µM
EC50 [2]: < 10 µM

O=C(NC1CCOCC1)c1nc2cc(F)cc(C(=O)NCC3CCO3)c2o1 (stereo not drawn) [Compound 19, 5-fluoro-N2-(tetrahydro-2H-pyran-4-yl)-N7-((oxetan-2-yl)methyl)benzo[d]oxazole-2,7-dicarboxamide]
AC50 [1]: < 10 µM
EC50 [2]: < 10 µM

Cc1cc(NC(=O)c2nc3cc(F)cc(C(=O)NCC4CCO4)c3o2)ccn1 (stereo not drawn) [Compound 20, 5-fluoro-N2-(2-methylpyridin-4-yl)-N7-((oxetan-2-yl)methyl)benzo[d]oxazole-2,7-dicarboxamide]
AC50 [1]: < 10 µM
EC50 [2]: < 10 µM

O=C(Nc1ccc(Cl)cc1)c1nc2cc(F)cc(C(=O)NCC3CCO3)c2o1 (stereo not drawn) [Compound 21, N2-(4-chlorophenyl)-5-fluoro-N7-((oxetan-2-yl)methyl)benzo[d]oxazole-2,7-dicarboxamide]
AC50 [1]: < 10 µM
EC50 [2]: < 10 µM

O=C(Nc1ccc(OC(F)(F)F)cc1)c1nc2cc(F)cc(C(=O)NCC3CCO3)c2o1 (stereo not drawn) [Compound 22, 5-fluoro-N7-((oxetan-2-yl)methyl)-N2-(4-(trifluoromethoxy)phenyl)benzo[d]oxazole-2,7-dicarboxamide]
AC50 [1]: < 10 µM
EC50 [2]: < 10 µM

CN(CC1CCO1)C(=O)c1cc(F)ccc1OC(C)(C)C(=O)NC1CCOCC1 (stereo not drawn) [Compound 23, 2-(2-(tetrahydro-2H-pyran-4-ylcarbamoyl)propan-2-yloxy)-5-fluoro-N-methyl-N-((oxetan-2-yl)methyl)benzamide]
AC50 [1]: < 10 µM
EC50 [2]: < 10 µM

CN1CCC(NC(=O)C(C)(C)Oc2ccc(F)cc2C(=O)NCC2CCO2)C(F)(F)C1 (stereo not drawn) [Compound 24, 2-(2-(3,3-difluoro-1-methylpiperidin-4-ylcarbamoyl)propan-2-yloxy)-5-fluoro-N-((oxetan-2-yl)methyl)benzamide]
AC50 [1]: < 10 µM
EC50 [2]: < 10 µM

O=C(NCC1CCO1)c1cc(F)ccc1OCc1nc2cc(Cl)ccc2[nH]1 (stereo not drawn) [Compound 25, 2-((6-chloro-1H-benzo[d]imidazol-2-yl)methoxy)-5-fluoro-N-((oxetan-2-yl)methyl)benzamide]
AC50 [1]: < 10 µM
EC50 [2]: < 10 µM

CC(C)(Oc1ccc(F)cc1C(=O)NCC1CCO1)C(=O)NCCN1CCOCC1 (stereo not drawn) [Compound 27, 2-[1,1-dimethyl-2-(2-morpholinoethylamino)-2-oxo-ethoxy]-5-fluoro-N-(oxetan-2-ylmethyl)benzamide]
AC50 [1]: < 10 µM
EC50 [2]: < 10 µM

O=C(NC1CCC(F)(F)CC1)c1nc2cc(F)cc(C(=O)NCC3CCO3)c2o1 (stereo not drawn) [Compound 28, N2-(4,4-difluorocyclohexyl)-5-fluoro-N7-(oxetan-2-ylmethyl)benzo[d]oxazole-2,7-dicarboxamide]
AC50 [1]: 10 to 100 µM
EC50 [2]: < 10 µM

O=C(NC1CCN(CC(F)(F)F)CC1)c1nc2cc(F)cc(C(=O)NCC3CCO3)c2o1 (stereo not drawn) [Compound 29, 5-fluoro-N7-(oxetan-2-ylmethyl)-N2-(1-(2,2,2-trifluoroethyl)piperidin-4-yl)benzo[d]oxazole-2,7-dicarboxamide]
AC50 [1]: 10 to 100 µM

COc1ccc(NC(=O)N2Cc3cccc(C(=O)NCC4CCO4)c3C2)cc1 (stereo not drawn) [Compound 30, N2-(4-methoxyphenyl)-N4-((oxetan-2-yl)methyl)isoindoline-2,4-dicarboxamide]
AC50 [1]: < 10 µM
EC50 [2]: < 10 µM

CC(C)(Oc1ccc(F)cc1C(=O)NCC1CCO1)C(=O)Nc1ccc(OC(F)F)cc1 (stereo not drawn) [Compound 31, 2-((1-((4-(difluoromethoxy)phenyl)amino)-2-methyl-1-oxopropan-2-yl)oxy)-5-fluoro-N-(oxetan-2-ylmethyl)benzamide]
AC50 [1]: < 10 µM

COc1ccc(NC(=O)C(C)(C)Oc2ccc(F)cc2C(=O)NCC2CCCO2)cc1 (stereo not drawn) [Compound 33, 2-(2-(4-methoxyphenylcarbamoyl)propan-2-yloxy)-5-fluoro-N-((tetrahydrofuran-2-yl)methyl)benzamide]
AC50 [1]: < 10 µM
EC50 [2]: < 10 µM

CN(C)Cc1ccc(NC(=O)C(C)(C)Oc2ccccc2C(=O)NCC2CCCO2)cc1 (stereo not drawn) [Compound 34, 2-(2-(4-((dimethylamino)methyl)phenylcarbamoyl)propan-2-yloxy)-N-((tetrahydrofuran-2-yl)methyl)benzamide]
AC50 [1]: < 10 µM
EC50 [2]: < 10 µM
